Data taken from US12667566B2, “Combination therapy of GPR119 agonists and DPP-4 inhibitors” (MANKIND PHARMA LTD., priority 2019, dated 2026).

Assays:
blood glucose = assay: Oral glucose tolerance test (OGTT); assay type: in vivo; conditions: male Sprague Dawley rats, glucose load 2 g/kg
Protocol: FIG. 1. Oral glucose tolerance test (OGTT) of GPR119 agonist Formula 1A in male Sprague Dawley rats. Formula 1A was administered to the rats and blood glucose was monitored post 30 min of dose administration (0-time point). After glucose administration (2 g/kg/10 ml), glucose levels were estimated at different time points (5, 15, 30, 60 & 120 min) and compared to vehicle group. Data was analysed by One-Way ANOVA followed by Dunnett's Multiple Comparison Test. *P<0.05, **P<0.01 & ***P<0.001 vs vehicle control. Vehicle used was 0.5% Tween 80 and 99.5% NaCMC in water (0.5% w/v).
OGTT study is conducted in male Sprague dawley rats. […] Vehicle (0.5% Tween 80 and 99.5% NaCMC in water (0.5% w/v) was administered to control animals and remaining groups were administered with test compound prepared in vehicle at respective doses orally. Blood samples were collected immediately after test compound administration (which was −30 min time point). Blood glucose was monitored post 30 min of dose administration (which was a zero min time point). All animals received 2 g/kg/10 ml (20%) of Glucose solution orally. After glucose administration, glucose levels were estimated at different time points (5, 15, 30, 60 & 120 min). Estimation of blood glucose level was done by strip method. […] Blood glucose AUC was calculated from the samples collected at respective time points. […]

active GLP-1 = assay: Active GLP-1 estimation; assay type: in vivo; conditions: male Sprague Dawley rats, oral
Protocol: FIG. 2. Effect of GPR119 agonist Formula 1A on active GLP-1 levels in male Sprague Dawley rats. Formula 1A was administered to the rats and GLP-1 levels were estimated at different time points (0, 5, 15, 30 & 60 min) and compared to vehicle group. Data was analysed by One-Way ANOVA followed by Dunnett's Multiple Comparison Test. *P<0.05, **P<0.01, ***P<0.001 vs vehicle control. Vehicle used was 0.5% Tween 80 and 99.5% NaCMC in water (0.5% w/v).
GLP-1 estimation is conducted in male Sprague dawley rats. Animals of 8-10 weeks old were kept for overnight fasting (only water was provided ad libitum). […] were randomized based on basal glucose values into four different groups. Vehicle (0.5% Tween 80 and 99.5% NaCMC in water (0.5% w/v) was administered to control animals and remaining groups were administered with test compound prepared in vehicle at respective doses orally.
For active GLP-1 estimation, blood was collected by retro orbital puncture under isoflurane anesthesia. Active GLP-1 levels were estimated from the collected plasma at −30, 0, 5, 15, 30 & 60 min time points. Blood collection (Approximately 400-500 μl) was done by retro orbital puncture under isoflurane anesthesia with the help of DPP-4 inhibitor (#DPP4-010, Merck-Millipore) rinsed capillaries and collected into pre-coated Eppendorf (10 μl/ml of blood) with DPP-4 inhibitor.

Row | Structure (SMILES) | glucose reduction compared to vehicle (blood glucose; 10 mg/kg) [%] | increase in active GLP-1 secretion compared to vehicle (active GLP-1; 10 mg/kg/wt) [%] | glucose reduction compared to vehicle (blood glucose; 3 mg/kg) [%] | increase in active GLP-1 secretion compared to vehicle (active GLP-1; 3 mg/kg/wt) [%]
1 | CCc1cnc(N2CCC([C@H](C)Oc3nn4cc(-c5ccc(S(C)(=O)=O)cc5F)nc4s3)CC2)nc1 [Formula IA] | 16 | 123 | – | –
2 | N[C@@H](CC(=O)N1CCn2c(nnc2C(F)(F)F)C1)Cc1cc(F)c(F)cc1F [sitagliptin, (3R)-3-amino-1-[3-(trifluoromethyl)-5,6,7,8-tetrahydro-5H-[1,2,4]triazolo-[4,3-a]pyrazin-7-yl]-4-(2,4,5-trifluorophenyl) butan-1-one] | – | – | 15 | 253
